Data: patent US20090227619A1, “Harmine derivatives, intermediates used in their preparations, preparation processes and use therefo” (priority 2003, published 2009)
Where two headings read alike, the source gives them in different places.

Columns and labels:
[1] = in vivo; conditions: both, Kunming, mouse, ip
Protocol: (§2) Five grades of dosages for each sample according to the results of the preliminary test, each dosage being 0.8 larger than the previous one
(§3) During the experiment, each sample was added a small amount of Tween-80 to facilitate dissolution after the sample was weighed, and then 0.5% CMC-Na solution was gradually added to achieve the desired concentration. The experimental volume was 0.5 ml/20 g mouse.
(§4) Single injection via intraperitoneal (i.p.) to different groups mice.
(§5) Kunming mice were divided into different groups randomly according to their sex. The medicament was intraperitoneally administered to each group of mice according to the dosage setting. After the administration of the medicaments, mice were observed continuously for the first 2 h for any gross behavioral changes and deaths. Dead animals were dissected and examined for any possible organ damage. […] Conditions of animals died within two week were recorded. After two weeks, all survived animals were sacrificed and checked macroscopically for possible damage to the heart, liver, kidneys and so on. Viscera that had substantive pathological changes were pathologically examined.

[2] = tested on: CT-DNA; experiment: UV absorption spectrum method with CT-DNA; assay type: binding; conditions: CT-DNA 40 ug/ml, compound 20 uM, 37° C. for 2 h, OD at 260 nm
Protocol: Compounds to be tested (20 uM) were added into the PE buffer solution, and its scan curve was identified by the spectrograph at a wavelength of from 200 to 400 nm. CT-DNA (40 ug/ml) and compounds to be tested (20 uM) were added into the PE buffer solution. The mixture was cultured at 37° C. for 2 h, and its scan curve was identified by the UV spectrograph at a wavelength of from 200 to 400 nm. […] After that, the OD value at 260 nm of the scan curve of the medicaments tested and that of the CT-DNA mixture OD value at 260 nm of the scan curve were calculated and compared to determine the influences of the medicaments tested on the UV absorption spectrum of the DNA molecules.

[3] = tested on: Lewis lung cancer; conditions: Lewis lung cancer; for Body weight of the animals, end, First time / Body weight of the animals, end, Second time: ip × 10qd;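 as to all read-outs here: mice implanted subcutaneously in the axilla with Lewis lung tumor cells, treated starting the following day, killed roughly three weeks after implantation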
[4] = tested on: Hela; experiment: In vitro cytotoxicity, IC50 by MTT method, Hela; assay type: cell-based; conditions: Homo sapiens; Hela cell strain; read-out: IC50 Hela
How it was run: (§1)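 MTT viability, 48 h exposure: cells 10^5/ml in RPMI1640 + 10% FBS, 37 °C/5% CO2; MTT 4 h, DMSO solubilisation, A490.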

[5] = tested on: PLA-801; experiment: In vitro cytotoxicity, IC50 by MTT method, PLA-801; assay type: cell-based; conditions: PLA-801 cell strain; read-out: IC50 PLA-801
How it was run: as §1

[6] = tested on: Kunming mice; conditions: for Death rate: single i.p.
Protocol: as §2, §3, §4, §5

[7] = Solubility (physico-chemical data tables); conditions: qualitative; Table 12, 3,9-disubstituted β-carboline derivatives
[8] = tested on: HepG2; experiment: In vitro cytotoxicity, IC50 by MTT method, HepG2; assay type: cell-based, human; conditions: Homo sapiens; HepG2 cell strain; read-out: IC50 HepG2
How it was run: as §1

[9] = tested on: S180 sarcoma; conditions: S180 sarcoma; for Body weight of the animals, beginning, First time / Body weight of the animals, end, First time / Inhibition rate, First time / Weight of the tumor X ± SD, First time / Body weight of the animals, beginning, Second time / Body weight of the animals, end, Second time / Inhibition rate, Second time: ip × 10qd
[10] = tested on: Bel-7402; experiment: In vitro cytotoxicity, IC50 by MTT method, Bel-7402; assay type: cell-based; conditions: Homo sapiens, Bel-7402; Bel7402 cell strain; read-out: IC50 Bel7402
How it was run: as §1

[11] = tested on: NIH3T3; experiment: In vitro cytotoxicity, IC50 by MTT method, NIH3T3; assay type: cell-based; conditions: Mus musculus; NIH3T3 cell strain; read-out: IC50 NIH3T3
How it was run: as §1

[12] = tested on: Lovo; experiment: In vitro cytotoxicity, IC50 by MTT method, Lovo; assay type: cell-based; conditions: Homo sapiens; Lovo cell strain; read-out: IC50 Lovo
How it was run: as §1

[13] = tested on: BGC-823; experiment: In vitro cytotoxicity, IC50 by MTT method, BGC-823; assay type: cell-based; conditions: Homo sapiens, BGC-823; BGC823 cell strain; read-out: IC50 BGC823
How it was run: as §1
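For Death rate in this document: acute toxicity in Kunming mice grouped by sex, one intraperitoneal dose at five graded levels in Tween-80 plus 0.5% CMC-Na, deaths monitored over two weeks.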
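For LD50 in this document: acute toxicity in Kunming mice grouped by sex, one intraperitoneal dose at five graded levels in Tween-80 plus 0.5% CMC-Na, deaths monitored over two weeks.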

## O=C(O)c1cc2c3ccccc3n(Cc3ccccc3)c2cn1 [Compound 37, 9-benzyl-β-carboline-3-carboxylic acid]
[1]
  LD50 at 2 weeks: 163 mg/kg
[2]
  Influence on the UV absorption of DNA: increase the UV absorption of DNA
[3]; Dosage 25 (mg/ml)
  Body weight of the animals, end, First time: 24.1 g
  Body weight of the animals, end, Second time: 24.9 g
[3]; Dosage 25, ip × 10qd
  Body weight of the animals, beginning, First time: 18.6 g
  Inhibition rate, First time: 27.09%
  Weight of the tumor X ± SD, First time: 1.83 ± 0.17 g
  Body weight of the animals, beginning, Second time: 19.6 g
  Inhibition rate, Second time: 29.24%
  Weight of the tumor X ± SD, Second time: 1.67 ± 0.16 g
[3]; Dosage 50 (mg/ml)
  Body weight of the animals, end, First time: 23.9 g
  Body weight of the animals, end, Second time: 24.3 g
[3]; Dosage 50, ip × 10qd
  Body weight of the animals, beginning, First time: 18.9 g
  Inhibition rate, First time: 39.04%
  Weight of the tumor X ± SD, First time: 1.53 ± 0.14 g
  Body weight of the animals, beginning, Second time: 19.5 g
  Inhibition rate, Second time: 43.22%
  Weight of the tumor X ± SD, Second time: 1.34 ± 0.14 g
[3]; comparison table 43, in vivo
  Inhibition rate (%) Lewis cancer: 43.22%
[4]
  IC50: 90 µM
[5]
  IC50: 100 µM
[6]; 50% male 50% female mice, 240 mg/kg
  Death rate: 100
[6]; 50% male 50% female mice, 300 mg/kg
  Death rate: 100
[6]; female mice, 240 mg/kg
  Death rate: 100
[6]; female mice, 300 mg/kg
  Death rate: 100
[6]; male mice, 240 mg/kg
  Death rate: 100
[6]; male mice, 300 mg/kg
  Death rate: 100
[6]; mouse, in vivo, ip
  LD50: 142 to 189 mg/kg
[7]
  Solubility: soluble in DMSO
[8]
  IC50: 100 µM
[9]; Dosage 25 (mg/ml)
  Body weight of the animals, beginning, First time: 19.6 g
  Body weight of the animals, end, First time: 26.9 g
  Inhibition rate, First time: 23.86%
  Weight of the tumor X ± SD, First time: 2.17 ± 0.18 g
  Body weight of the animals, beginning, Second time: 20.4 g
  Body weight of the animals, end, Second time: 25.1 g
  Inhibition rate, Second time: 24.21%
[9]; Dosage 25, ip × 10qd
  Weight of the tumor X ± SD, Second time: 2.16 ± 0.27 g
[9]; Dosage 50 (mg/ml)
  Body weight of the animals, beginning, First time: 19.7 g
  Body weight of the animals, end, First time: 26.3 g
  Inhibition rate, First time: 34.39%
  Weight of the tumor X ± SD, First time: 1.87 ± 0.13 g
  Body weight of the animals, beginning, Second time: 20.6 g
  Body weight of the animals, end, Second time: 24.7 g
  Inhibition rate, Second time: 32.98%
[9]; Dosage 50, ip × 10qd
  Weight of the tumor X ± SD, Second time: 1.91 ± 0.23 g
[9]; comparison table 43, in vivo
  Inhibition rate (%) S180 sarcomata: 34.39%
[10]
  IC50: 110 µM
[11]
  IC50: 50 µM
[12]
  IC50: 40 µM
[13]
  IC50: 50 µM
